Test results published in the CheMixHub viscosity set.

Experiment: xn = mol fraction of the nth substance listed

CC(C)OCCO + CCCCCCCCCCO
viscosity [mPa·s], 101 kPa
Conditions	298.15 K	303.15 K	308.15 K
x1 = 0.0501	11.21	9.204	7.728
x1 = 0.1066	10.53	8.634	7.235
x1 = 0.1507	10.01	8.194	6.853
x1 = 0.253	8.94	7.311	6.115
x1 = 0.3119	8.302	6.783	5.668
x1 = 0.3516	7.856	6.41	5.352
x1 = 0.4159	7.17	5.836	4.871
x1 = 0.5018	6.315	5.145	4.3
x1 = 0.6016	5.388	4.398	3.692
x1 = 0.7014	4.518	3.715	3.149
x1 = 0.8012	3.69	2.991	2.564
x1 = 0.854	3.267	2.661	2.308
x1 = 0.9003	2.873	2.385	2.097
x1 = 0.9507	2.516	2.166	1.948

CCOC(=O)CCl + CCCCCCCCC
viscosity [mPa·s], 101.33 kPa
Conditions	x1 = 0.1004	x1 = 0.2033	x1 = 0.3013	x1 = 0.4018	x1 = 0.5019	x1 = 0.6012	x1 = 0.7037	x1 = 0.8037	x1 = 0.9012
298.15 K	0.66	0.665	0.686	0.716	0.755	0.799	0.849	0.907	0.982
303.15 K	0.62	0.623	0.644	0.67	0.705	0.743	0.792	0.842	0.912
308.15 K	0.58	0.583	0.602	0.624	0.654	0.688	0.735	0.778	0.843

O=C(O)CC(=O)O + C[N+](C)(C)CCO.[Cl-]
viscosity [mPa·s]
Conditions	293.15 K	293.2 K	298.15 K	303.15 K	303.2 K	308.15 K	313.15 K	313.2 K	318.15 K	323.15 K
100 kPa, x2 = 0.5	2016	–	1389	982.9	–	710.7	524.5	–	393.9	301.2
101 kPa, x2 = 0.5	1651	–	1084	679.6	–	486.4	372.5	–	286.5	207.2
101.3 kPa, x2 = 0.502	–	1600	–	–	1029	–	–	615	–	–
